In patent publication US9062041B2 (Bayer Intellectual Property GmbH, priority 2011, dated 2015):

Columns and labels:
Type in all cases: cell-based
human PGD receptor = target: T1, human PGD receptor (Homo sapiens, UniProt Q13258); experiment: cAMP antagonism test on the human prostaglandin D receptor (HTRF cAMP detection); conditions: selectivity towards hDP, IC50 measured by cAMP antagonism test
T1 sequence (Q13258 1-359): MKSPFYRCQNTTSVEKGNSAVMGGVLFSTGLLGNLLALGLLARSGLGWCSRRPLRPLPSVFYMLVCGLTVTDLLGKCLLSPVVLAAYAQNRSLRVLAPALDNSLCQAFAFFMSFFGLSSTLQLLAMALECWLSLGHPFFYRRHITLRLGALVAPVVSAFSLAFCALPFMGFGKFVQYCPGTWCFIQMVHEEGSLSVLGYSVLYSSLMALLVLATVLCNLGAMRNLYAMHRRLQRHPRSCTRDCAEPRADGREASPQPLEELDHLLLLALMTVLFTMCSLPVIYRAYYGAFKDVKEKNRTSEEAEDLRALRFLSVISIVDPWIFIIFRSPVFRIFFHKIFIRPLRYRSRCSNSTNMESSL
In short: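 HTRF competition read-out (665/620 nm ratio ×10000), where higher FRET means less cAMP, i.e. antagonism. Compounds (0.8 nM–16.5 μM) were preincubated 20 min at RT with cells and cAMP-d2, PGD2 (3× solution, 6 nM) in IBMX-containing PBS added for 30 min at RT, then cells lysed 20 min.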

[1] = target: EP4 subtype of the human PGE2 receptor (Homo sapiens, UniProt P35408); experiment: cAMP antagonism test on the human EP4 receptor (HTRF cAMP detection); conditions: selectivity towards hEP4, IC50 measured by cAMP antagonism test
In short: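 Competitive HTRF cAMP read-out (cAMP-d2 vs Eu-cryptate anti-cAMP antibody, 665/620 nm ratio) on lysed human EP4 cells. Compound (0.8 nM–16.5 μM) applied 20 min at RT before 60 min PGE2 challenge (3× solution 0.3 nM, IBMX present); 20 min lysis precedes reading.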

[2] = target: EP2 subtype of the human PGE2 receptor (Homo sapiens, UniProt P43116); experiment: cAMP antagonism test on the human EP2 receptor (HTRF cAMP detection); conditions: hEP2 receptor, read-out: Antagonism hEP2 IC50
In short: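 Read-out is a competitive HTRF for cAMP: lysate cAMP displaces cAMP-d2 from Eu cryptate-labelled antibody, and antagonism raises the 665/620 nm ratio. Compound (0.8 nM–16.5 μM) added to EP2 cells 20 min at RT before 60 min PGE2 challenge (3× stock 1.5 nM) with IBMX, followed by 20 min lysis.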

Chain of EP2 subtype of the human PGE2 receptor (P43116 whole entry): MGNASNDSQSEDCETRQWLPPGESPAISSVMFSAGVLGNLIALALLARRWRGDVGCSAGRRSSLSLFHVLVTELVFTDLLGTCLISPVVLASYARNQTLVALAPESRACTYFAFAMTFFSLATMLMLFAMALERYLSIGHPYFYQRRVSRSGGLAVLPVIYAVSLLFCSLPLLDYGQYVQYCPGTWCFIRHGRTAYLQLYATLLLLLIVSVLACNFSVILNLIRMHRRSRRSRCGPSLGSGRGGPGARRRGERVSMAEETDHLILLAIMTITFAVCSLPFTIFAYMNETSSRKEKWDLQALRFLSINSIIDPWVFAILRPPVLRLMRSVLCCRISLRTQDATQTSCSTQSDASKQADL
Chain of EP4 subtype of the human PGE2 receptor (P35408 whole entry): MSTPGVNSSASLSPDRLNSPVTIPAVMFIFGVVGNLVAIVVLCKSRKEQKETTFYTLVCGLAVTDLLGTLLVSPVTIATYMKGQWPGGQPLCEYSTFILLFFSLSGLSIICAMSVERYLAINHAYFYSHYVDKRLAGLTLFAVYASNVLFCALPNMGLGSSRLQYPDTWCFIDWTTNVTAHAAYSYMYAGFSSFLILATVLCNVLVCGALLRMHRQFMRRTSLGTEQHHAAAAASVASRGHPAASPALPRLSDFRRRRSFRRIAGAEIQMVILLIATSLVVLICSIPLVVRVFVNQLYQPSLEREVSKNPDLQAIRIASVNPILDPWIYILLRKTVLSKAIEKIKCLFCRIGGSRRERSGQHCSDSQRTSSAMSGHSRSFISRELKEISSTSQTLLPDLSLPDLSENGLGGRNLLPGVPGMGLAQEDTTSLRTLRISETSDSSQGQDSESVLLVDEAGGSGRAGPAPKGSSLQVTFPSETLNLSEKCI

## COCCNC(=O)c1cc2cn(CC3CCN(C(=O)c4ccc(S(F)(F)(F)(F)F)cc4)CC3)nc2cc1C [Example 210, N-(2-methoxyethyl)-6-methyl-2-({1-[4-(pentafluoro-λ^6-sulphanyl)benzoyl]-piperidin-4-yl}methyl)-2H-indazol-5-carboxamide]
Human PGD receptor
  Selectivity hEP2/hDP: xxx (xxx > 100)
[1]
  Selectivity hEP2/hEP4: xxx (xxx > 100)
[2]
  IC50: 19.5 nM

## COCCNC(=O)c1cc2cn(CC3CCN(C(=O)c4ccc(C(F)(F)F)cc4)CC3)nc2cc1C [Example 211, N-(2-methoxyethyl)-6-methyl-2-({1-[4-(trifluoromethyl)benzoyl]piperidin-4-yl}-methyl)-2H-indazol-5-carboxamide]
Human PGD receptor
  Selectivity hEP2/hDP: xxx (xxx > 100)
[1]
  Selectivity hEP2/hEP4: xxx (xxx > 100)
[2]
  IC50: 50.1 nM

## CCc1c(C(=O)NCCOC)ccc2nn(CC3CCN(C(=O)c4ccc(Cl)cc4)CC3)cc12 [Example 212, 2-{[1-(4-chlorobenzoyl)piperidin-4-yl]methyl}-4-ethyl-N-(2-methoxyethyl)-2H-indazol-5-carboxamide]
Human PGD receptor
  Selectivity hEP2/hDP: xxx (xxx > 100)
[1]
  Selectivity hEP2/hEP4: xxx (xxx > 100)
[2]
  IC50: 106 nM

## CCc1c(C(=O)NCCOC)ccc2nn(CC3CCN(C(=O)c4ccc(OC(F)(F)F)cc4)CC3)cc12 [Example 213, 4-Ethyl-N-(2-methoxyethyl)-2-({1-[4-(trifluoromethoxy)benzoyl]piperidin-4-yl}methyl)-2H-indazol-5-carboxamide]
Human PGD receptor
  Selectivity hEP2/hDP: xxx (xxx > 100)
[1]
  Selectivity hEP2/hEP4: xxx (xxx > 100)
[2]
  IC50: 82.4 nM

## COCCNC(=O)c1ccc2nn(CC3CN(C(=O)c4ccc(Cl)cc4)C3)cc2c1OC [Example 214, 2-{[1-(4-chlorobenzoyl)azetidin-3-yl]methyl}-4-methoxy-N-(2-methoxyethyl)-2H-indazol-5-carboxamide]
Human PGD receptor
  Selectivity hEP2/hDP: xxx (xxx > 100)
[1]
  Selectivity hEP2/hEP4: xxx (xxx > 100)
[2]
  IC50: 64.9 nM

## COCCNC(=O)c1ccc2nn(CC3CN(C(=O)c4ccc(SC(F)(F)F)cc4)C3)cc2c1OC [Example 215, 4-methoxy-N-(2-methoxyethyl)-2-[(1-{4-[(trifluoromethyl)sulphanyl]benzoyl}azetidin-3-yl)methyl]-2H-indazol-5-carboxamide]
Human PGD receptor
  Selectivity hEP2/hDP: xxx (xxx > 100)
[1]
  Selectivity hEP2/hEP4: xxx (xxx > 100)
[2]
  IC50: 39 nM

## COCCNC(=O)c1ccc2nn(CC3CN(C(=O)c4ccc(Br)cc4)C3)cc2c1OC [Example 216, 2-{[1-(4-bromobenzoyl)azetidin-3-yl]methyl}-4-methoxy-N-(2-methoxyethyl)-2H-indazol-5-carboxamide]
Human PGD receptor
  Selectivity hEP2/hDP: xxx (xxx > 100)
[1]
  Selectivity hEP2/hEP4: xxx (xxx > 100)
[2]
  IC50: 86.1 nM

## COCCNC(=O)c1ccc2nn(C[C@@H]3CCN(C(=O)c4ccc(Cl)cc4)C3)cc2c1C [Example 217, 2-{[(R)-1-(4-chlorobenzoyl)pyrrolidin-3-yl]methyl}-N-(2-methoxyethyl)-4-methyl-2H-indazol-5-carboxamide]
Human PGD receptor
  Selectivity hEP2/hDP: xxx (xxx > 100)
[1]
  Selectivity hEP2/hEP4: xxx (xxx > 100)
[2]
  IC50: 114 nM

## COCCNC(=O)c1ccc2nn(C[C@@H]3CCN(C(=O)c4ccc(OC(F)(F)F)cc4)C3)cc2c1C [Example 218, N-(2-methoxyethyl)-4-methyl-2-({(R)-1-[4-(trifluoromethoxy)benzoyl]-pyrrolidin-3-yl}methyl)-2H-indazol-5-carboxamide]
Human PGD receptor
  Selectivity hEP2/hDP: xxx (xxx > 100)
[1]
  Selectivity hEP2/hEP4: xxx (xxx > 100)
[2]
  IC50: 128 nM

## COCCNC(=O)c1ccc2nn(C[C@@H]3CCN(C(=O)c4ccc(S(F)(F)(F)(F)F)cc4)C3)cc2c1C [Example 219, N-(2-methoxyethyl)-4-methyl-2-({(3R)-1-[4-(pentafluoro-λ^6-sulphanyl)benzoyl]-pyrrolidin-3-yl}methyl)-2H-indazol-5-carboxamide]
Human PGD receptor
  Selectivity hEP2/hDP: xx (xx: 10-100)
[1]
  Selectivity hEP2/hEP4: xx (xx: 10-100)
[2]
  IC50: 273 nM

## Cc1c(C(=O)NCCSC(F)(F)F)ccc2nn(C[C@@H]3CCN(C(=O)c4ccc(Cl)cc4)C3)cc12 [Example 220, 2-{[(R)-1-(4-chlorobenzoyl)pyrrolidin-3-yl]methyl}-4-methyl-N-{2-[(trifluoromethyl)sulphanyl]ethyl}-2H-indazol-5-carboxamide]
Human PGD receptor
  Selectivity hEP2/hDP: xxx (xxx > 100)
[1]
  Selectivity hEP2/hEP4: xxx (xxx > 100)
[2]
  IC50: 147 nM

## Cc1c(C(=O)NCCSC(F)(F)F)ccc2nn(C[C@@H]3CCN(C(=O)c4ccc(OC(F)(F)F)cc4)C3)cc12 [Example 221, 4-methyl-2-({(R)-1-[4-(trifluoromethoxy)benzoyl]pyrrolidin-3-yl}methyl)-N-{2-[(trifluoromethyl)sulphanyl]ethyl}-2H-indazol-5-carboxamide]
Human PGD receptor
  Selectivity hEP2/hDP: xx (xx: 10-100)
[1]
  Selectivity hEP2/hEP4: xx (xx: 10-100)
[2]
  IC50: 235 nM

## COCCNC(=O)c1ccc2nn(C[C@H]3CCN(C(=O)c4ccc(Cl)cc4)C3)cc2c1C [Example 222, 2-{[(S)-1-(4-chlorobenzoyl)pyrrolidin-3-yl]methyl}-N-(2-methoxyethyl)-4-methyl-2H-indazol-5-carboxamide]
Human PGD receptor
  Selectivity hEP2/hDP: xxx (xxx > 100)
[1]
  Selectivity hEP2/hEP4: xxx (xxx > 100)
[2]
  IC50: 40.9 nM

## COCCNC(=O)c1ccc2nn(C[C@H]3CCN(C(=O)c4ccc(-c5ccc(F)cc5)cc4)C3)cc2c1C [Example 223, 2-({(S)-1-[(4′-fluorobiphenyl-4-yl)carbonyl]pyrrolidin-3-yl}methyl)-N-(2-methoxyethyl)-4-methyl-2H-indazol-5-carboxamide]
Human PGD receptor
  Selectivity hEP2/hDP: xxx (xxx > 100)
[1]
  Selectivity hEP2/hEP4: xxx (xxx > 100)
[2]
  IC50: 20 nM

## COCCNC(=O)c1ccc2nn(C[C@H]3CCN(C(=O)c4ccc(Oc5ccc(C(F)(F)F)cc5)cc4)C3)cc2c1C [Example 224, N-(2-methoxyethyl)-4-methyl-2-{[(S)-1-{4-[4-(trifluoromethyl)phenoxy]benzoyl}pyrrolidin-3-yl]methyl}-2H-indazol-5-carboxamide]
Human PGD receptor
  Selectivity hEP2/hDP: xxx (xxx > 100)
[1]
  Selectivity hEP2/hEP4: xxx (xxx > 100)
[2]
  IC50: 5.62 nM

## COCCNC(=O)c1ccc2nn(CC3CCN(C(=O)c4ccc(Cl)cc4)CC3)cc2c1OC(F)F [Example 225, 2-{[1-(4-chlorobenzoyl)piperidin-4-yl]methyl}-4-(difluoromethoxy)-N-(2-methoxyethyl)-2H-indazol-5-carboxamide]
Human PGD receptor
  Selectivity hEP2/hDP: xxx (xxx > 100)
[1]
  Selectivity hEP2/hEP4: xxx (xxx > 100)
[2]
  IC50: 14.3 nM

## COCCNC(=O)c1ccc2nn(CC3CCN(C(=O)c4ccc(Oc5ccc(F)cc5)cc4)CC3)cc2c1OC(F)F [Example 226, 4-(difluoromethoxy)-2-({1-[4-(4-fluorophenoxy)benzoyl]piperidin-4-yl}methyl)-N-(2-methoxyethyl)-2H-indazol-5-carboxamide]
Human PGD receptor
  Selectivity hEP2/hDP: xxx (xxx > 100)
[1]
  Selectivity hEP2/hEP4: xxx (xxx > 100)
[2]
  IC50: 11.9 nM

## COCCNC(=O)c1ccc2nn(CC3CCN(C(=O)c4ccc(-c5ccc(F)cc5)cc4)CC3)cc2c1OC(F)F [Example 227, 4-(difluoromethoxy)-2-({1-[(4′-fluorobiphenyl-4-yl)carbonyl]piperidin-4-yl}methyl)-N-(2-methoxyethyl)-2H-indazol-5-carboxamide]
Human PGD receptor
  Selectivity hEP2/hDP: xxx (xxx > 100)
[1]
  Selectivity hEP2/hEP4: xxx (xxx > 100)
[2]
  IC50: 9.89 nM
